This is an account of results in patent publication US8637553B2, “Fluoro substituted omega-carboxyaryl diphenyl urea for the treatment and prevention of diseases and conditions” (Bayer Healthcare LLC, priority 2003, dated 2014).

Test [1] has as its target T1, p38 α2 (Homo sapiens, UniProt Q16539).
T1 construct: His; made in house; host or cells: E. coli
Put plainly: p38 kinase in vitro assay. The conditions noted are these: in vitro kinase biochemical assay. Here is the method: Purified and His-tagged p38 α2 (expressed in E. Coli) was activated in vitro by MMK-6 to a high specific activity. Using a microtiter format, all reactions were conducted in 100 μL volumes with reagents diluted to yield 0.05 μg/well of activated p38 α2 and 10 μg/well of myelin basic protein in assay buffer (25 mM HEPES 7.4, 20 mM MgCl2, 150 mM NaCl). Test compounds (5 μL of a 10% DMSO solution in water) were prepared and diluted into the assay to cover a final concentration range from 5 nM to 2.5 μM. The kinase assay was initiated by addition of 25 μL of an ATP cocktail to give a final concentration of 10 μM cold ATP and 0.2 μCi [gamma-^33P] ATP per well (200-400 dpm/pmol of ATP). The plate was incubated at 32° C. for 35 min., and the reaction quenched with 7 μL of a 1 N aq HCl solution. The samples were harvested onto a P30 Filtermat (Wallac, Inc.) using a TomTec 1295 Harvester (Wallac, Inc.), and counted in a LKB 1205 Betaplate Liquid Scintillation Counter (Wallac, Inc.). Negative controls included substrate plus ATP alone. SW1353 cellular assay: SW1353 cells (human chondro-sarcoma) are seeded (1000 cells/100 μL DMEM 10% FCS/well) into 96-well plates and incubated overnight. […] Cultures are incubated for 48 h at 37° C., then supernatant IL-6 values are determined by ELISA.

Test [2] concerns pERK in MDA-MB-231 cells. Put plainly: Bio-Plex phospho-ERK 1/2 immunoassay (basal pERK). The format is cell-based. As to conditions: Homo sapiens, 2 h incubation. Here is the method:
A 96 well pERK immunoassay, using laser flow cytometry (Bio-Rad) platform has been established to measure inhibition of basal pERK in breast cancer cell line. MDA-MB-231 cells were plated at 50,000 cells per well in 96 well microtitre plates in complete growth media. For effects of test compounds on basal pERK½ inhibition, the next day after plating, MDA-MB-231 cells were transferred to DMEM with 0.1% BSA and incubated with test compounds diluted 1:3 to a final concentration of 3 μM to 12 nM in 0.1% DMSO. Cells were incubated with test compounds for 2 h, washed, and lysed in Bio-Plex whole cell lysis buffer A. Samples are diluted with buffer B 1:1 (v/v) and directly transferred to assay plate or frozen at −80 C. degrees until processed. 50 μL of diluted MDA-MB-231 cell lysates were incubated with about 2000 of 5 micron Bio-Plex beads conjugated with an anti-ERK½ antibody overnight on a shaker at room temperature. The next day, biotinylated phospho-ERK½ sandwich immunoassay was performed, beads are washed 3 times during each incubation and then 50 μL of PE-strepavidin was used as a developing reagent. The relative fluorescence units of pERK½ were detected by counting 25 beads with Bio-Plex flow cell (probe) at high sensitivity. The IC50 was calculated by taking untreated cells as maximum and no cells (beads only) as background using in an Excel spreadsheet based program.

For test [3], the system named is MDA-MB-231 cells. Put plainly: MDA-MB231 proliferation assay (CellTiter-Glo). The format is cell-based. The conditions noted are these: Homo sapiens, 72 hours. Here is the method:
Human breast carcinoma cells (MDA MB-231, NCI) were cultured in standard growth medium (DMEM) supplemented with 10% heat-inactivated FBS at 37° C. in 5% CO2 (vol/vol) in a humidified incubator. Cells were plated at a density of 3000 cells per well in 90 μL growth medium in a 96 well culture dish. In order to determine T0h CTG values, 24 hours after plating, 100 μL of CellTiter-Glo Luminescent Reagent (Promega) was added to each well and incubated at room temperature for 30 minutes. Luminescence was recorded on a Wallac Victor II instrument. The CellTiter-Glo reagent results in cell lysis and generation of a luminescent signal proportional to the amount of ATP present, which, in turn is directly proportional to the number of cells present.
Test compounds are dissolved in 100% DMSO to prepare 10 mM stocks. […] The cells with and without individual test compounds were incubated for 72 hours at which time ATP dependent luminescence was measured, as described previously, to yield T72h values. Optionally, the IC50 values can be determined with a least squares analysis program using compound concentration versus percent inhibition. % Inhibition=[1−(T72h test−T0h)/(T72h ctrl−T0h)]×100, where T72h test=ATP dependent luminescence at 72 hours in the presence of test compound T72h ctrl=ATP dependent luminescence at 72 hours in the absence of test compound T0h=ATP dependent luminescence at Time Zero
(Cellular ATP, detected with luciferase, serves as a proxy for viable cell number.)

The test system of test [4] is phospho-PDGFR-beta in aortic smooth muscle cells. Put plainly: pPDGFR-beta in AoSMC cells. The conditions noted are these: PDGF-BB stimulated. The format is cell-based. As for the experimental part:
100K P3-P6 Aortic SMC were plated in each well of 12-well cluster in 1000 μL volume/well of SGM-2 using standard cell culture techniques. Next day, cells were rinsed with 1000 μL D-PBS once, then serum starved in 500 μL SBM (smooth muscle cell basal media) with 0.1% BSA overnight. Compounds were diluted at a dose range from (10 μM to 1 nM in 10-fold dilution steps in DMSO. Final DMSO concentration 0.1%). Remove old media by inversion into the sink quickly then add 100 μL of each dilution to corresponding well of cells for 1 h at 37° C. Cells were then stimulated with 10 ng/mL PDGF-BB ligand for 7 min at 37° C. The media is decanted and 150 μL of isotonic lysis buffer with protease inhibitor tablet (Complete; EDTA-free) and 0.2 mM Na vanadate is added. Cells are lysed for 15 min at 4° C. on shaker in cold room. Lysates are put in eppendorf tubes to which 15 μL of agarose-conjugated anti-PDGFR-beta antibody is added and incubated at 4° C. overnight. Next day, beads are rinsed in 50-volumes of PBS three times and boiled in 1×LDS sample buffer for 5 minutes. Samples were run on 3-8% gradient Tris-Acetate gels and transferred onto Nitrocellulose. Membranes were blocked in 1% BSA/TBS-T for 1 hr. before incubation in anti-phospho-PDGFR-b (Tyr-857) antibody in blocking buffer (1:1000 dilution) for 1 h. […]

T1 sequence (Q16539 whole entry): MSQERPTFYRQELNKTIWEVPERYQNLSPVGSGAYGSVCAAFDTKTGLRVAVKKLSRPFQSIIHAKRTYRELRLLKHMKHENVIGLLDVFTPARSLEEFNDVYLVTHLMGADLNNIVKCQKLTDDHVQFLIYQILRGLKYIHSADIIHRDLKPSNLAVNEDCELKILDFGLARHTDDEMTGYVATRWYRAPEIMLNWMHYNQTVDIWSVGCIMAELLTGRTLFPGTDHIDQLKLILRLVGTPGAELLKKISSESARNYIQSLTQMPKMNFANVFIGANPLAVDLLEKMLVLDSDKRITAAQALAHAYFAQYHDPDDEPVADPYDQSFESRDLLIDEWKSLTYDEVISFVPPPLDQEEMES

One may read the IC50 as the concentration that gives 50% inhibition. Low readings indicate higher potency, high ones lower potency. On to `CNC(=O)c1cc(Oc2ccc(NC(=O)Nc3ccc(Cl)c(C(F)(F)F)c3)c(F)c2)ccn1` [Example 1, 4{4-[3-(4-chloro-3-trifluoromethylphenyl)-ureido]-3-fluorophenoxy}-pyridine-2-carboxylic acid methylamide], for which the IC50 was found to be 24 nM in test [1], 22 nM in test [2], 600 nM in test [3] and 43.6 nM in test [4].
